One series has as its system diabetic rats. The experiment in a line: Antidiabetic effect study in diabetic rats. Format: in vivo. As to conditions: streptozotocin-induced diabetic rats; for reduction in blood glucose level (in words): 5 rats per group, glucometer, 0-8 h. How it is done: Glucose lowering effect of orally administered optimized SMEDDS was monitored in diabetic rats. Study was performed with the approval Pharmacy Ethical Committee, Bahauddin Zakariya University, Multan, Pakistan (249/PEC/2023 dated 25 March 2023). Diabetes was introduced in rats weighing 220–240 g by injecting streptozotocin solution at the dose of (45 mg/kg body weight) intraperitoneally. Fasting blood glucose (FBG) level of all the rats was measured after 3 days using glucometer (AccuChek Performa, Hoffman-La Roche, Basel, Switzerland). Rats with FBG level 200–250 mg/dL were considered diabetic and were included in the study. All rats were fasted over night before experiment and start of treatment. Diabetic rats were divided randomly in 5 groups with 5 rats per group. […] Blood samples were collected at regular time intervals, i.e., 0, 0.5, 1, 1.5, 2, 3, 4, 6, and 8 h and measured for hypoglycemic effects using glucometer.

The nature of the next series: Solubility in n-octanol. Format: physicochemical. As to conditions: insulin measured spectrophotometrically at 270 nm, sentence also cites refs 14, 15. How it is done:
After 4 h of magnetic stirring, the mixture was centrifuged for 30 min at 5000 rpm.

For series [1] the following is noted: stated without reference; cited from earlier work. From the text:
HIP of peptides with surfactants is an efficient tool to enhance its lipophilic characteristics. […] These six positively charged amino acids (two Histidine, one Arginine, one Lysine and two N-terminal amino aci ...

Regarding Human insulin, the “reduction in blood glucose level (in words)” value in the series on diabetic rats (oral, 50 IU/kg insulin equivalent) is “negligible anti-diabetic effect”; with diabetic rats (subcutaneous, 5 IU/kg), “Maximum reduction in blood glucose level”. In the series on diabetic rats (subcutaneous, 5 IU/kg, entire duration of the experiment), the “duration of glucose lowering effect” value is “up to 8 h”. Besides, the solubility in n-octanol in “Solubility in n-octanol” is ~17 µg/mL. In addition, in series [1], the isoelectric point is reported as 5.35–5.45.

The values above are taken from PMC10383801 (Pharmaceutics, 2023).
